Data: patent US10322129B2, “Therapeutic compositions containing dipyridamole, treatment packs and kits including such compositions and methods for producing same” (O.D. Ocular Discovery Ltd., priority 2015, dated 2019)
Converted amounts (≈) assume the structure as drawn.

Tests used:
[1] = dissolution in aqueous solution by adjusting the pH; assay type: physicochemical; details: pH of the aqueous solution adjusted to ~6.6 (6.5-6.7) or less
Excerpt: The natural pH of tear fluid is 7.4; however, discomfort for the user will not be felt as long as the pH of the administered medication stays in the range of 6.6-7.8 (Sampath Kumar et al., “Recent Challenges and Advances in Ophthalmic Drug Delivery System,” in The Pharma Innovation, Vol. 1, No. 4 (2012)). Others administer eye drops at a pH of 5.5 and find this pH to be optimal.

[2] = cited from earlier work
[3] = cited from earlier work; remark: listed apart in the source

SMILES: OCCN(CCO)c1nc(N2CCCCC2)c2nc(N(CCO)CCO)nc(N3CCCCC3)c2n1 [Dipyridamole, dipyridamole]
- dissolution in the aqueous solution [1]: fully dissolves
- water solubility ([2]; Meylan, W M ET AL. (1996)): 8.17 µg/mL (≈ 16.2 µM)
- solubility in water ([2]; water): practically insoluble
- solubility in methanol [3]: very soluble
